Results from ChEMBL document CHEMBL6087385, “Synthesis and biological evaluation of Ribo 7-N/O/S pyrimidine 9-deaza C-nucleoside analogs as new antiviral agents for inhibiting HCV RNA-dependent RNA polymerases” (Eur J Med Chem, 2024).

How the values were obtained:
[1] = test system: Hepatitis C virus; assay: Antiviral activity against Hepatitis C virus infected in Ava5 cells assessed as inhibition of viral RNA replication incubated for 72 hrs by RT-PCR analysis; format: functional, organism-based, Hepacivirus hominis; conditions: Ava5, 72 h
[2] = Half life in Sprague-Dawley rat at 10 mg/kg, po by reverse phase chromatography; format: ADME, organism-based; conditions: in vivo
[3] = Genotoxicity in mouse L5178Y cells assessed as increase in forward mutation at thymidine kinase locus; format: toxicity, cell-based
[4] = AUC (0 to infinity) in female mouse at 5 mg/kg, po by reverse phase chromatography; format: ADME, organism-based; conditions: in vivo
[5] = Toxicity in Sprague-Dawley rat assessed as diarrhea at 250 mg/kg, po administered as single dose and measured after 14 days; format: organism-based; conditions: in vivo, 336 h, time 14 day
[6] = Metabolic stability in cryopreserved rat hepatocyte assessed as half life in presence of NADPH; format: ADME, cell-based; conditions: cryopreserved hepatocytes
[7] = Cmax in Cynomolgus monkey at 10 mg/kg, po administered for 7 days by reverse phase chromatography; format: ADME, organism-based, Macaca fascicularis; conditions: in vivo, time 7 day
[8] = test system: Hepatitis C virus; assay: Antiviral activity against HCV genotype 1a infected in GLuc-1 cells; format: functional, organism-based, Hepacivirus hominis
[9] = Toxicity in Sprague-Dawley rat assessed as eyes and nares staining at 90 mg/kg, po administered as single dose and measured after 14 days; format: organism-based; conditions: in vivo, 336 h, time 14 day
[10] = AUC (0 to infinity) in Cynomolgus monkey at 10 mg/kg, po administered for 7 days by reverse phase chromatography; format: ADME, organism-based, Macaca fascicularis; conditions: in vivo, time 7 day
[11] = Toxicity in Sprague-Dawley rat assessed as weight loss at 100 mg/kg, po administered as single dose and measured after 14 days; format: organism-based; conditions: in vivo, 336 h, time 14 day
[12] = AUC (0 to infinity) in Sprague-Dawley rat at 1 mg/kg, iv by reverse phase chromatography; format: ADME, organism-based; conditions: in vivo
[13] = Toxicity in rat assessed as effect on clinical observations at 1 to 9 mg/kg, po; format: organism-based; conditions: in vivo, dose 1-9 mg/kg
[14] = Toxicity in rat assessed as effect on respiratory endpoint at 1 to 9 mg/kg, po; format: organism-based; conditions: in vivo, dose 1-9 mg/kg
[15] = test system: Hepatitis C virus; assay: Anti-viral activity against HCV genotype 1b infected in human Huh-luc cells; format: functional, organism-based, Hepacivirus hominis
[16] = Toxicity in Cynomolgus monkey assessed as change in ECG at 100 to 500 mg/kg, po administered as single dose; format: organism-based, Macaca fascicularis; conditions: in vivo, dose 100-500 mg/kg
[17] = Tmax in Cynomolgus monkey at 10 mg/kg, po administered for 7 days by reverse phase chromatography; format: ADME, organism-based, Macaca fascicularis; conditions: in vivo, time 7 day
[18] = AUC in Sprague-Dawley rat at 1 mg/kg, iv by reverse phase chromatography; format: ADME, organism-based; conditions: in vivo
[19] = Toxicity in Sprague-Dawley rat assessed as anogenital staining at 90 mg/kg, po administered as single dose and measured after 14 days; format: organism-based; conditions: in vivo, 336 h, time 14 day
[20] = AUC in Sprague-Dawley rat at 5 mg/kg, po by reverse phase chromatography; format: ADME, organism-based; conditions: in vivo
[21] = Clearance in female mouse at 1 mg/kg, iv by reverse phase chromatography; format: ADME, organism-based; conditions: in vivo
[22] = AUC (0 to infinity) in Sprague-Dawley rat at 10 mg/kg, po by reverse phase chromatography; format: ADME, organism-based; conditions: in vivo
[23] = Genotoxicity in CD-1(ICR)BR mouse assessed as effect on bone marrow cells at 2000 mg/kg, po by micronucleus assay; format: toxicity, organism-based; conditions: in vivo
[24] = Genotoxicity in CD-1(ICR)BR mouse assessed as increase in polychromatic erythrocytes at 500 to 2000 mg/kg, po measured after 48 hrs by micronucleus assay; format: toxicity, organism-based; conditions: in vivo, dose 500-2000 mg/kg
[25] = Clearance in Cynomolgus monkey at 1 mg/kg, iv by reverse phase chromatography; format: ADME, organism-based, Macaca fascicularis; conditions: in vivo
[26] = Half life in Sprague-Dawley rat at 1 mg/kg, iv by reverse phase chromatography; format: ADME, organism-based; conditions: in vivo
[27] = Tmax in Sprague-Dawley rat at 5 mg/kg, po by reverse phase chromatography; format: ADME, organism-based; conditions: in vivo
[28] = Volume of distribution in Cynomolgus monkey at 1 mg/kg, iv by reverse phase chromatography; format: ADME, organism-based, Macaca fascicularis; conditions: in vivo
[29] = Toxicity in Cynomolgus monkey assessed as change in ECG at 100 mg/kg, po administered twice a day; format: organism-based, Macaca fascicularis; conditions: in vivo
[30] = Half life in Sprague-Dawley rat at 5 mg/kg, po by reverse phase chromatography; format: ADME, organism-based; conditions: in vivo
[31] = Oral bioavailability in Sprague-Dawley rat at 5 mg/kg by reverse phase chromatography; format: ADME, organism-based; conditions: in vivo
[32] = Toxicity in Sprague-Dawley rat assessed as anogenital staining at 250 mg/kg, po administered as single dose and measured after 14 days; format: organism-based; conditions: in vivo, 336 h, time 14 day
[33] = Metabolic stability in cryopreserved dog hepatocyte assessed as half life in presence of NADPH; format: ADME, cell-based, Canis lupus familiaris; conditions: cryopreserved hepatocytes
[34] = Half life in Cynomolgus monkey at 1 mg/kg, iv by reverse phase chromatography; format: ADME, organism-based, Macaca fascicularis; conditions: in vivo
[35] = Cmax in Sprague-Dawley rat at 10 mg/kg, po by reverse phase chromatography; format: ADME, organism-based; conditions: in vivo
[36] = Cmax in Sprague-Dawley rat at 1 mg/kg, iv by reverse phase chromatography; format: ADME, organism-based; conditions: in vivo
[37] = Toxicity in Sprague-Dawley rat assessed as macroscopic examination at necroscopy at 100 mg/kg, po administered as single dose and measured after 14 days; format: organism-based; conditions: in vivo, 336 h, time 14 day
[38] = Half life in Cynomolgus monkey at 10 mg/kg, po administered for 7 days by reverse phase chromatography; format: ADME, organism-based, Macaca fascicularis; conditions: in vivo, time 7 day
[39] = Toxicity in Sprague-Dawley rat assessed as lethargy at 100 mg/kg, po administered as single dose and measured after 14 days; format: organism-based; conditions: in vivo, 336 h, time 14 day
[40] = Drug metabolism in human Hepatocyte cells assessed as triphosphate metabolite formation at 10 uM measured upto 24 hrs by HPLC-MS analysis; format: ADME, cell-based; conditions: hepatocytes
[41] = Toxicity in Cynomolgus monkey assessed as weight loss at 100 mg/kg, po administered twice a day; format: organism-based, Macaca fascicularis; conditions: in vivo
[42] = Half life in female mouse at 5 mg/kg, po by reverse phase chromatography; format: ADME, organism-based; conditions: in vivo
[43] = Tmax in female mouse at 5 mg/kg, po by reverse phase chromatography; format: ADME, organism-based; conditions: in vivo
[44] = Toxicity in Sprague-Dawley rat assessed as animal death at 90 to 250 mg/kg, po administered as single dose and measured after 14 days; format: organism-based; conditions: in vivo, 336 h, dose 90-250 mg/kg, time 14 day
[45] = Metabolic stability in dog liver microsome assessed as half life in presence of NADPH; format: ADME, Canis lupus familiaris; conditions: liver microsomes
[46] = Toxicity in Sprague-Dawley rat assessed as piloerection at 90 mg/kg, po administered as single dose and measured after 14 days; format: organism-based; conditions: in vivo, 336 h, time 14 day
[47] = Metabolic stability in cryopreserved human hepatocyte assessed as half life in presence of NADPH; format: ADME, cell-based; conditions: cryopreserved hepatocytes
[48] = Tmax in female mouse at 1 mg/kg, iv by reverse phase chromatography; format: ADME, organism-based; conditions: in vivo
[49] = Metabolic stability in rat liver microsome assessed as half life in presence of NADPH; format: ADME; conditions: liver microsomes
[50] = test system: Hepatitis C virus; assay: Anti-viral activity against HCV genotype 2a infected in 2aLucNeo-25 cells; format: functional, organism-based, Hepacivirus hominis
[51] = Toxicity in Sprague-Dawley rat assessed as eyes and nares staining at 250 mg/kg, po administered as single dose and measured after 14 days; format: organism-based; conditions: in vivo, 336 h, time 14 day
[52] = Metabolic stability in human liver microsome assessed as half life in presence of NADPH; format: ADME; conditions: liver microsomes

Q: Which results are given for `C[C@@]1(O)[C@H](O)[C@@H](CO)O[C@H]1c1coc2c(N)ncnc12`?
A: EC50 [1]: 6.5 µM; half-life [2]: 8.86 h; Activity [3]: Non-toxic; AUC(0-inf) [4]: 4220 ng·h/mL; Activity [5]: Non-toxic; half-life [6]: > 1 h; Cmax [7]: 2510 ng/mL; EC50 [8]: 5.4 µM; Activity [9]: Non-toxic; AUC(0-inf) [10]: 8010 ng·h/mL; Activity [11]: Non-toxic; AUC(0-inf) [12]: 947 ng·h/mL; Activity [13]: Non-toxic; Activity [14]: Non-toxic; EC50 [15]: 4.7 µM; Activity [16]: Non-toxic; Tmax [17]: 0.7 h; AUC [18]: 699 ng·h/mL; Activity [19]: Non-toxic; AUC [20]: 1920 ng·h/mL; clearance [21]: 11.6 mL/min/kg; AUC(0-inf) [22]: 5650 ng·h/mL; Activity [23]: Toxic; Activity [24]: Toxic; clearance [25]: 8.56 mL/min/kg; half-life [26]: 28.4 h; Tmax [27]: 0.5 h; Vd [28]: 8.67 L/kg; Activity [29]: Non-toxic; half-life [30]: 9.18 h; bioavailability [31]: 55%; Activity [32]: Non-toxic; half-life [33]: > 1 h; half-life [34]: 24 h; Cmax [35]: 1180 ng/mL; Cmax [36]: 1150 ng/mL; Activity [37]: Non-toxic; half-life [38]: 26.3 h; Activity [39]: Non-toxic; Drug metabolism [40]: metabolite_detected; Activity [41]: Non-toxic; half-life [42]: 16.6 h; Tmax [43]: 0.5 h; Activity [44]: Non-toxic; half-life [45]: > 1.67 h; Activity [46]: Non-toxic; half-life [47]: > 1 h; Tmax [48]: 4.98 min; half-life [49]: > 1.67 h; EC50 [50]: > 50 µM; Activity [51]: Non-toxic; half-life [52]: > 1.67 h
